Marks after values point to notes of the source that are not given here.
System: grossesse apparemment normale et une aménorhée de 49 jours au plus
Test: Clinical study of termination of early pregnancy: oral RU 486 alone or with an intramuscular sulprostone injection
Type: in vivo, jeunes femmes
Protocol: L'étude a porté sur 33 jeunes femmes en bonne santé présentant une grossesse apparemment normale et une aménorhée de 49 jours au plus.
Le composé RU 486 a été administré oralement à différentes doses : • 1) 25 mg 2 fois par jour pendant 4 jours. • 2) 25 mg 4 fois par jour pendant 4 jours.
Chez 16 patientes une injection intramusculaire de 0,25 mg de la méthylsulfonylamide de la 16-phénoxytétranor PG E2 (sulprostone) a été administrée le matin du dernier jour de traitement par le RU 486. Les sujets ont jeuné au moins une heure avant jusqu'à une heure après la prise du produit.
Les résultats obtenus sont rapportés dans le tableau I ci-après.

[1] = number of patients, RU 486 25 mg orally 2 times per day for 4 days (25 x 2), n=11 group A, n=9 group B
[2] = number of patients, RU 486 25 mg orally 4 times per day for 4 days (25 x 4), n=6 group A, n=7 group B
[3] = number of patients, Total of both RU 486 doses, n=17 group A, n=16 group B
[4] = percent of patients, Total of both RU 486 doses, n=17 group A

Q: `CC#C[C@]1(O)CC[C@H]2[C@@H]3CCC4=CC(=O)CCC4=C3[C@@H](c3ccc(N(C)C)cc3)C[C@@]21C` [RU 486, 11β-(4-diméthylaminophényl) 170 - hydroxy 17α-(prop-l-ynyl) estra 4,9 - dièn 3 - one] was tested. Which Avortements complets [1] did it give?
A: 8

Q: And the Avortements incomplets [1]?
A: 1

Q: And the “Poursuite de la grossesse” value (number of patients, RU 486 25 mg orally 2 times per day for 4 days (25 x 2), n=11 group A, n=9 group B, group A value includes one extra-uterine pregnancy)?
A: 2*

Q: What about the Avortements complets [2] of the same compound?
A: 5

Q: And the Avortements incomplets [2]?
A: 0

Q: What about the “Poursuite de la grossesse” value [2] of the same compound?
A: 1

Q: And the Avortements complets [3]?
A: 13

Q: What about the Avortements incomplets [3] of the same compound?
A: 1

Q: And the “Poursuite de la grossesse” value [3]?
A: 3

Q: And the Avortements incomplets [4]?
A: 5,9%

Q: And the “Poursuite de la grossesse” value [4]?
A: 17,6%

Q: And the Avortements complets (percent of patients, Total of both RU 486 doses, n=17 group A, n=16 group B)?
A: 76,5%

— patent EP0184471A1, “Product containing an antiprogestomimetic and a uterotonic substance” (ROUSSEL-UCLAF, priority 1984, dated 1986)
